Usually pIC50 stands for the negative decadic logarithm of the IC50, by convention in mol/L.

Data on 16 molecules can be found in patent publication US10821115B2, “Compounds that inhibit Mcl-1 protein” (priority 2017, dated 2020).

Test [1] has as its system human multiple myeloma cell line, OPM-2. The experiment in a line: Cell viability assay (OPM-2 10 FBS), CellTiter-Glo. Type of test: cell-based. In a few lines: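 Cells were seeded at 3000 cells/well in RPMI 1640 with 10% FBS and exposed to serially diluted compounds for 16 h at 37 °C, 5% CO2.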
Test [2] concerns the target recombinant human Mcl-1 (residues 171-327) / Bim interaction (Homo sapiens (Human), UniProt Q07820). Briefly: biochemical. Type of test: binding. The settings on record: read-out: Mcl-1 HTRF IC50. For orientation: Time-resolved FRET reads energy transfer from a long-lived donor to a nearby acceptor.
[3] abbreviates: Homo sapiens, OPM-2, 16 h, read-out: OPM-2 10% FBS IC50 IP, OPM-2 cells, 10% FBS, 16 h, CellTiter-Glo.
Setting [4] is: TR-FRET, Mcl-1(171-327) / biotin-Bim (51-76).
Setting [5] is: Homo sapiens, OPM-2, 16 h, read-out: OPM-2 10% FBS IC50 IP, OPM-2 cells, 10% FBS, 16 h incubation.
Where [6] appears, read: 0.1 nM Mcl-1(171-327), 0.05 nM biotin-Bim (51-76).
The mark [7] stands for this setting: read-out: OPM-2 10% FBS IC50 IP, OPM-2 cells, 10% FBS, 16 h incubation.

pIC50: −log10 of the molar value. Read-outs that look alike come from different tables or passages of the source.

Sequence of recombinant human Mcl-1 (residues 171-327) / Bim interaction (Q07820 171-327): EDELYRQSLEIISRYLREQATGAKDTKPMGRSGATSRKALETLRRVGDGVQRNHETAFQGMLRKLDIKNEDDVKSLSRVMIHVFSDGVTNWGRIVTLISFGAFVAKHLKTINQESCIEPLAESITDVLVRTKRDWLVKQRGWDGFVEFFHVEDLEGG

Regarding `CO[C@@]1(C#CCCO)/C=C/C[C@H](C)[C@@H](C)S(=O)(=O)NC(=O)c2ccc3c(c2)N(C[C@@H]2CC[C@H]21)C[C@@]1(CCCc2cc(Cl)ccc21)CO3` [Example 100427, (1S,3′R,6′R,7′S,8′E,11′S,12′R)-6-chloro-7′-(4-hydroxy-1-butyn-1-yl)-7′-methoxy-11′,12′-dimethyl-3,4-dihydro-2H,15′H-spiro[naphthalene-1,22′-[20]oxa[13]thia[1,14]diazatetracyclo [14.7.2.0~3,6~.0~19,24~]pentacosa[8,16,18,24]tetraen]-15′-one 13′,13′-dioxide], the pIC50 in test [1] (setting [3]) was 6.47; in test [2] (setting [4]), 9.68.
As to `CC(C)CO[C@]1(CN2CCN3CCOC[C@@H]3C2)/C=C/C[C@H](C)[C@@H](C)S(=O)(=O)NC(=O)c2ccc3c(c2)N(C[C@@H]2CC[C@H]21)C[C@@]1(CCCc2cc(Cl)ccc21)CO3` [Example 356, (1S,3′R,6′R,7′R,8′E,11′S,12′R)-6-chloro-7′-((9aS)-hexahydropyrazino[2,1-c][1,4]oxazin-8(1H)-ylmethyl)-11′,12′-dimethyl-7′-(2-methylpropoxy)-3,4-dihydro-2H,15′H-spiro[naphthalene-1,22′-[20]oxa[13]thia[1,14]diazatetracyclo [14.7.2.0~3,6~.0~19,24~]pentacosa[8,16,18,24]tetraen]-15′-one 13′,13′-dioxide], the pIC50 in test [1] (setting [5]) was 6.44; in test [2] (setting [6]), 9.96.
Turning to `C[C@@H]1CS(=O)(=O)NC(=O)c2ccc3c(c2)N(C[C@@H]2CC[C@H]2[C@@](O)(CN2CCN(C4COC4)CC2)/C=C/[C@@H]1C)C[C@@]1(CCCc2cc(Cl)ccc21)CO3` [Example 165, (1S,3′R,6′R,7′R,8′E,10′S,11′S)-6-chloro-7′-hydroxy-10′,11′-dimethyl-7′-((4-(3-oxetanyl)-1-piperazinyl)methyl)-3,4-dihydro-2H,15′H-spiro[naphthalene-1,22′-[20]oxa[13]thia[1,14]diazatetracyclo [14.7.2.0~3,6~.0~19,24~]pentacosa[8,16,18,24]tetraen]-15′-one 13′,13′-dioxide], the results for the pIC50 in test [1] (setting [5]) and in test [2] (setting [6]) were 6.74 and 9.72, respectively.
On to `C[C@@H]1[C@@H](C)C/C=C/[C@@](O)(c2ccncn2)[C@@H]2CC[C@H]2CN2C[C@@]3(CCCc4cc(Cl)ccc43)COc3ccc(cc32)C(=O)NS1(=O)=O` (single isomer, unassigned) [Example 100360], for which the pIC50 in test [1] (setting [3]) was 5.91; in test [2] (setting [4]), 9.07.
For the molecule `CCCO[C@]1(CN2CCN3CCCC[C@@H]3C2)/C=C/C[C@H](C)[C@@H](C)S(=O)(=O)NC(=O)c2ccc3c(c2)N(C[C@@H]2CC[C@H]21)C[C@@]1(CCCc2cc(Cl)ccc21)CO3` [Example 353, (1S,3′R,6′R,7′R,8′E,11′S,12′R)-6-chloro-11′,12′-dimethyl-7′-((9aR)-octahydro-2H-pyrido[1,2-a]pyrazin-2-ylmethyl)-7′-propoxy-3,4-dihydro-2H,15′H-spiro[naphthalene-1,22′-[20]oxa[13]thia[1,14]diazatetracyclo [14.7.2.0~3,6~.0~19,24~]pentacosa[8,16,18,24]tetraen]-15′-one 13′,13′-dioxide], the pIC50 in test [1] (setting [7]) was 6.73; in test [2] (setting [6]), 9.87.
On to `CO[C@@]1(CC(=O)N(C)C2CCC2)/C=C/C[C@H](C)[C@@H](C)S(=O)(=O)NC(=O)c2ccc3c(c2)N(C[C@@H]2CC[C@H]21)C[C@@]1(CCCc2cc(Cl)ccc21)CO3` [Example 100450, 2-((1S,3′R,6′R,7′S,8′E,11′S,12′R)-6-chloro-7′-methoxy-11′,12′-dimethyl-13′,13′-dioxido-15′-oxo-3,4-dihydro-2H-spiro[naphthalene-1,22′-[20]oxa[13]thia[1,14]diazatetracyclo [14.7.2.0~3,6~.0~19,24~]pentacosa[8,16,18,24]tetraen]-7′-yl)-N-cyclobutyl-N-methylacetamide], for which the pIC50 was 5.72 in test [1] (setting [3]) and 9.47 in test [2] (setting [4]).
Regarding `CO[C@@]1(CN2CCN(C3CN(C(C)=O)C3)CC2)/C=C/C[C@H](C)[C@@H](C)S(=O)(=O)NC(=O)c2ccc3c(c2)N(C[C@@H]2CC[C@H]21)C[C@@]1(CCCc2cc(Cl)ccc21)CO3` [Example 280, (1S,3′R,6′R,7′S,8′E,11′S,12′R)-7′-((4-(1-acetyl-3-azetidinyl)-1-piperazinyl)methyl)-6-chloro-7′-methoxy-11′,12′-dimethyl-3,4-dihydro-2H,15′H-spiro[naphthalene-1,22′-[20]oxa[13]thia[1,14]diazatetracyclo [14.7.2.0~3,6~.0~19,24~]pentacosa[8,16,18,24]tetraen]-15′-one 13′,13′-dioxide], the pIC50 is 7.14 in test [1] (setting [5]) and 10.28 in test [2] (setting [6]).
With `COCCOC[C@]1(O)/C=C/C[C@H](C)[C@@H](C)S(=O)(=O)NC(=O)c2ccc3c(c2)N(C[C@@H]2CC[C@H]21)C[C@@]1(CCCc2cc(Cl)ccc21)CO3` [Example 100444, (1S,3′R,6′R,7′S,8′E,11′S,12′R)-6-chloro-7′-hydroxy-7′-((2-methoxyethoxy)methyl)-11′,12′-dimethyl-3,4-dihydro-2H,15′H-spiro[naphthalene-1,22′-[20]oxa[13]thia[1,14]diazatetracyclo [14.7.2.0~3,6~.0~19,24~]pentacosa[8,16,18,24]tetraen]-15′-one 13′,13′-dioxide], the figures for the pIC50 in test [1] (setting [3]) and in test [2] (setting [4]) were 6.19 and 10.01, respectively.
Turning to `C=CC[C@]1(OC)/C=C/C[C@H](C)[C@@H](C)S(=O)(=O)NC(=O)c2ccc3c(c2)N(C[C@@H]2CC[C@H]21)C[C@@]1(CCCc2cc(Cl)ccc21)CO3` [Example 100397, (1S,3′R,6′R,7′S,8′E,11′S,12′R)-6-chloro-7′-methoxy-11′,12′-dimethyl-7′-(2-propen-1-yl)-3,4-dihydro-2H,15′H-spiro[naphthalene-1,22′-[20]oxa[13]thia[1,14]diazatetracyclo [14.7.2.0~3,6~.0~19,24~]pentacosa[8,16,18,24]tetraen]-15′-one 13′,13′-dioxide], the pIC50 in test [1] (setting [3]) was 6.39; in test [2] (setting [4]), 9.70.
In the case of `CO[C@@]1(C[C@@H](O)C2CC2)/C=C/C[C@H](C)[C@@H](C)S(=O)(=O)NC(=O)c2ccc3c(c2)N(C[C@@H]2CC[C@H]21)C[C@@]1(CCCc2cc(Cl)ccc21)CO3` (single isomer, unassigned) [Example 100461], the pIC50 is 6.42 in test [1] (read-out: OPM-2 10% FBS IC50 IP, OPM-2 cells, 10% FBS, 16 h, CellTiter-Glo) and 10.38 in test [2] (setting [4]).
As to `C[C@@H]1[C@@H](C)CCC[C@]2(COC(=O)O2)[C@@H]2CC[C@H]2CN2C[C@@]3(CCCc4cc(Cl)ccc43)COc3ccc(cc32)C(=O)NS1(=O)=O` (single isomer, unassigned) [Example 100055], the pIC50 in test [1] (setting [3]) is 5.33; in test [2] (setting [4]), 8.90.
As to `C#C[C@]1(O)/C=C/C[C@H](C)[C@@H](C)S(=O)(=O)NC(=O)c2ccc3c(c2)N(C[C@@H]2CC[C@H]21)C[C@@]1(CCCc2cc(Cl)ccc21)CO3` [Example 100244, (1S,3′R,6′R,7′S,8′E,11′S,12′R)-6-chloro-7′-ethynyl-7′-hydroxy-11′,12′-dimethyl-3,4-dihydro-2H,15′H-spiro[naphthalene-1,22′-[20]oxa[13]thia[1,14]diazatetracyclo [14.7.2.0~3,6~.0~19,24~]pentacosa[8,16,18,24]tetraen]-15′-one 13′,13′-dioxide], the pIC50 is 7.31 in test [1] (setting [3]) and 9.74 in test [2] (setting [4]).
For the molecule `CC#C[C@]1(OC)CCC[C@H](C)[C@@H](C)S(=O)(=O)NC(=O)c2ccc3c(c2)N(C[C@@H]2CC[C@H]21)C[C@@]1(CCCc2cc(Cl)ccc21)CO3` [Example 100332, (1S,3′R,6′R,7′S,11′S,12′R)-6-chloro-7′-methoxy-11′,12′-dimethyl-7′-(1-propyn-1-yl)-3,4-dihydro-2H,15′H-spiro[naphthalene-1,22′-[20]oxa[13]thia[1,14]diazatetracyclo [14.7.2.0~3,6~.0~19,24~]pentacosa[16,18,24]trien]-15′-one 13′,13′-dioxide], the pIC50 in test [1] (setting [3]) was 5.37; in test [2] (setting [4]) it was 8.19.
In the case of `C[C@@H]1[C@@H](C)CCC[C@@](O)(CN)[C@@H]2CC[C@H]2CN2C[C@@]3(CCCc4cc(Cl)ccc43)COc3ccc(cc32)C(=O)NS1(=O)=O` (single isomer, unassigned) [Example 507], the pIC50 was under 4.48 in test [1] (setting [7]) and 7.86 in test [2] (setting [6]).
Consider `CCO[C@]1(CN2CCN(C(C)C)CC2)/C=C/C[C@H](C)[C@@H](C)S(=O)(=O)NC(=O)c2ccc3c(c2)N(C[C@@H]2CC[C@H]21)C[C@@]1(CCCc2cc(Cl)ccc21)CO3` [Example 114, (1S,3′R,6′R,7′R,8′E,11′S,12′R)-6-chloro-7′-ethoxy-11′,12′-dimethyl-7′-((4-(1-methylethyl)-1-piperazinyl)methyl)-3,4-dihydro-2H,15′H-spiro[naphthalene-1,22′-[20]oxa[13]thia[1,14]diazatetracyclo [14.7.2.0~3,6~.0~19,24~]pentacosa[8,16,18,24]tetraen]-15′-one 13′,13′-dioxide], for which the pIC50 in test [1] (setting [5]) was 7.17; in test [2] (setting [6]), 9.98.
Take `C[C@@H]1[C@@H](C)C/C=C/[C@](C)(OCCN2CCOCC2)[C@@H]2CC[C@H]2CN2C[C@@]3(CCCc4cc(Cl)ccc43)COc3ccc(cc32)C(=O)NS1(=O)=O` [Example 100007, (1 S,3′R,6′R,7′S,8′E,11′S, 12′R)-6-chloro-7′,11′,12′-trimethyl-7′-(2-(4-morpholinyl)ethoxy)-3,4-dihydro-2H, 15′H-spiro[naphthalene-1,22′-[20]oxa[13]thia[1,14]diazatetracyclo[14.7.2.0-3,6˜.0˜19,24˜]pentacosa[8,16,18,24]tetraen]-15′-one 13′,13′-dioxide]: the pIC50 was 6.85 in test [1] (setting [3]) and 9.44 in test [2] (setting [4]).
